In ChEMBL document CHEMBL5104090, “Recent advances in the medicinal chemistry of carbonic anhydrase inhibitors” (Eur J Med Chem, 2021):
Blank lines part the entries; values can stand above or below the compound they belong to.

How the values were obtained:
[1] = target: T1, Carbonic anhydrase 9 (Homo sapiens, UniProt Q16790)
[2] = target: T2, Carbonic anhydrase 1 (Homo sapiens, UniProt P00915)
[3] = target: T3, Carbonic anhydrase 2 (Homo sapiens, UniProt P00918)
[4] = target: T2, Carbonic anhydrase 1; remark: listed apart in the source
[5] = target: T3, Carbonic anhydrase 2; remark: listed apart in the source
[6] = target: T1, Carbonic anhydrase 9; remark: listed apart in the source
[7] = target: Carbonic anhydrase 7 (Homo sapiens, UniProt P43166)
[8] = tested on: Ca9-22; test: cells; format: functional; settings: Homo sapiens, time 48 hrs
Description: Cytotoxicity against human Ca9-22 cells assessed as cell growth inhibition measured after 48 hrs by MTT assay

[9] = tested on: HSC-2; test: cells; format: functional; settings: Homo sapiens, time 48 hrs
Description: Cytotoxicity against human HSC-2 cells assessed as cell growth inhibition measured after 48 hrs by MTT assay

[10] = tested on: HSC-3; test: cells; format: functional; settings: Homo sapiens, time 48 hrs
Description: Cytotoxicity against human HSC-3 cells assessed as cell growth inhibition measured after 48 hrs by MTT assay

[11] = tested on: HSC-4; test: cells; format: functional; settings: Homo sapiens, time 48 hrs
Description: Cytotoxicity against human HSC-4 cells assessed as cell growth inhibition measured after 48 hrs by MTT assay

[12] = target: T3, Carbonic anhydrase 2; remark: listed apart in the source
[13] = target: T2, Carbonic anhydrase 1; remark: listed apart in the source
[14] = target: T1, Carbonic anhydrase 9; remark: listed apart in the source
[15] = target: T4, Carbonic anhydrase 12 (Homo sapiens, UniProt O43570)
[16] = target: T2, Carbonic anhydrase 1; remark: listed apart in the source
[17] = target: T3, Carbonic anhydrase 2; remark: listed apart in the source
[18] = target: T4, Carbonic anhydrase 12; remark: listed apart in the source
[19] = target: Carbonic anhydrase 4 (Homo sapiens, UniProt P22748)
Sequence of Carbonic anhydrase 4 (P22748 whole entry): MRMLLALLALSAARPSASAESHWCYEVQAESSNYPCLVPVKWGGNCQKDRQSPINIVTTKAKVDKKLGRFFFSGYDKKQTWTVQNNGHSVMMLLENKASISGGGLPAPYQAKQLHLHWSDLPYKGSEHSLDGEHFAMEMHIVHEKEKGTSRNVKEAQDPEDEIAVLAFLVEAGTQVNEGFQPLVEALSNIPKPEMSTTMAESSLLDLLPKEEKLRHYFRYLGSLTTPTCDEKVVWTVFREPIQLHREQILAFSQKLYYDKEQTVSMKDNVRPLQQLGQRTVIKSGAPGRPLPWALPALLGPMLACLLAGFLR

Sequence of Carbonic anhydrase 7 (P43166 whole entry): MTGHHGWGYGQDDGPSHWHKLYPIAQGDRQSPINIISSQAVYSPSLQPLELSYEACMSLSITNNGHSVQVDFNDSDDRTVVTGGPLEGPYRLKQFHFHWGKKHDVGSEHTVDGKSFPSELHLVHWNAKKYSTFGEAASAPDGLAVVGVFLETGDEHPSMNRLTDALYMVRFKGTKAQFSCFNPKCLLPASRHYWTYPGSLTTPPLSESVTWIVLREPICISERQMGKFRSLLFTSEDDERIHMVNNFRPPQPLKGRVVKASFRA
T4 sequence (O43570 whole entry): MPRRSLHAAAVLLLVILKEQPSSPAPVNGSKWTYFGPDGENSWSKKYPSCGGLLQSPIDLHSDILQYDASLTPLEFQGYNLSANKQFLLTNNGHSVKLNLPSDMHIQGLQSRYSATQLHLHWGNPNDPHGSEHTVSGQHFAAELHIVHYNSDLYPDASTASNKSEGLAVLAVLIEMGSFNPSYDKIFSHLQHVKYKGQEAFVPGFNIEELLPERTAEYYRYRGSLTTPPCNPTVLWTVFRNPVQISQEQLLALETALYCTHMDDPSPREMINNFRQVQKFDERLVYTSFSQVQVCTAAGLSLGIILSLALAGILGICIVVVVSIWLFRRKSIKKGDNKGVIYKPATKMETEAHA
T2 sequence (P00915 whole entry): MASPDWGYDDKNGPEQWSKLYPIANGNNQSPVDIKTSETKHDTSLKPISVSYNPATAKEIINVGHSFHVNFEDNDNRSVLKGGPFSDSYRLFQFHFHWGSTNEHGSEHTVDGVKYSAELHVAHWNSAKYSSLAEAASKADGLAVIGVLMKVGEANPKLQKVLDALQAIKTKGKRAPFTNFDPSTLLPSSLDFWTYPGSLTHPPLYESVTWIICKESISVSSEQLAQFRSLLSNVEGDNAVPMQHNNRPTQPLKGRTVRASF

SMILES: Cn1nc(-c2ccccc2)c(/N=N/c2ccc(Br)cc2)c1-c1ccccc1
Ki [2]: 0.00106 µM
Ki [3]: 0.00068 µM

SMILES: Brc1ccc(/N=N/c2c(-c3ccccc3)nn(-c3ccccc3)c2-c2ccccc2)cc1
Ki [2]: 0.00106 µM
Ki [3]: 0.00068 µM

SMILES: NS(=O)(=O)c1ccc(N2N=C(c3cccs3)CC2c2ccc(C(F)(F)F)cc2)cc1 (configuration not stated)
Ki [4]: 0.0242 µM
Ki [5]: 0.0373 µM

SMILES: [SeH]c1ccc2ccccc2c1
Ki [6]: 0.46 µM
Ki [7]: 0.76 µM

SMILES: COc1ccc(C2CC(c3ccc(Br)cc3)=NN2c2ccc(S(N)(=O)=O)cc2)c(OC)c1 (configuration not stated)
CC50 [8]: 15 µM
CC50 [9]: 15 µM
CC50 [10]: 15 µM
CC50 [11]: 15 µM

SMILES: CS(=O)(=O)Cc1c(Br)c(O)c(O)c(Br)c1Br
Ki [12]: 0.0428 µM

SMILES: O=[N+]([O-])c1ccccc1-n1nc(-c2ccccc2)c(/N=N/c2ccc(Br)cc2)c1-c1ccccc1
Ki [2]: 0.00106 µM
Ki [3]: 0.00068 µM

SMILES: COc1ccc(C2CC(c3cccs3)=NN2c2ccc(S(N)(=O)=O)cc2)cc1OC (configuration not stated)
Ki [4]: 0.0242 µM
Ki [5]: 0.0373 µM

SMILES: COc1ccc(C2CC(c3cccs3)=NN2c2ccc(S(N)(=O)=O)cc2)cc1 (configuration not stated)
Ki [4]: 0.0242 µM
Ki [5]: 0.0373 µM

SMILES: CCn1nc(-c2ccccc2)c(/N=N/c2ccc(Br)cc2)c1-c1ccccc1
Ki [2]: 0.00106 µM
Ki [3]: 0.00068 µM

SMILES: COc1ccc(C2CC(c3ccccc3)=NN2c2ccc(S(N)(=O)=O)cc2)c(OC)c1 (configuration not stated)
CC50 [8]: 15 µM
CC50 [9]: 15 µM
CC50 [10]: 15 µM
CC50 [11]: 15 µM

SMILES: Cc1cccc(C)c1[SeH]
Ki [7]: 0.76 µM

SMILES: O=c1c2ccccc2nc(SCCN2CCCCC2)n1CCc1ccccc1
Ki [16]: 0.229 µM
Ki [17]: 0.0142 µM
Ki [6]: 0.0193 µM
Ki [18]: 0.0172 µM

SMILES: CS(=O)(=O)Cc1cc(O)c(O)c(Br)c1Br
Ki [12]: 0.0428 µM

SMILES: COc1ccc(C2CC(c3cccs3)=NN2c2ccc(S(N)(=O)=O)cc2)c(OC)c1 (configuration not stated)
Ki [4]: 0.0242 µM
Ki [5]: 0.0373 µM

SMILES: Brc1ccc(/N=N/c2c(-c3ccccc3)nn(-c3ccc(Br)cc3)c2-c2ccccc2)cc1
Ki [2]: 0.00106 µM
Ki [3]: 0.00068 µM

SMILES: COc1ccc([SeH])cc1
Ki [6]: 0.18 µM
Ki [7]: 0.76 µM

SMILES: [SeH]c1ccccc1
Ki [6]: 0.18 µM
Ki [7]: 0.76 µM

SMILES: Cc1ccc(-n2nc(-c3ccccc3)c(/N=N/c3ccc(Br)cc3)c2-c2ccccc2)cc1C
Ki [2]: 0.00106 µM
Ki [3]: 0.00068 µM

SMILES: COc1cccc([SeH])c1
Ki [6]: 0.28 µM
Ki [7]: 0.76 µM

SMILES: COc1ccccc1N1CCN(Cc2cc(/C=C3/Cc4ccccc4C3=O)ccc2O)CC1
Ki [12]: 0.0511 µM

More lines, now with the values ahead:

Kis [1]: 3 nM
SMILES: NS(=O)(=O)c1ccc(C(=O)NN2C(=O)c3cc(Cl)c(Cl)cc3C2=O)cc1

Kis [1]: 3 nM
SMILES: NS(=O)(=O)c1ccc(C(=O)NN2C(=O)c3cccc4cc([N+](=O)[O-])cc(c34)C2=O)cc1

Ki [4]: 0.0242 µM
Ki [5]: 0.0806 µM
SMILES: NS(=O)(=O)c1ccc(N2N=C(c3cccs3)CC2c2ccccc2)cc1 (configuration not stated)

Kis [1]: 3 nM
SMILES: NS(=O)(=O)c1ccc(C(=O)NN2C(=O)c3c(Br)c(Br)c(Br)c(Br)c3C2=O)cc1

Kis [1]: 3 nM
SMILES: NS(=O)(=O)c1ccc(C(=O)NN2C(=O)c3c(Cl)c(Cl)c(Cl)c(Cl)c3C2=O)cc1

Kis [1]: 3 nM
SMILES: NS(=O)(=O)c1ccc(C(=O)NN2C(=O)c3cccc4cccc(c34)C2=O)cc1

Kis [1]: 3 nM
SMILES: NS(=O)(=O)c1ccc(C(=O)NN2C(=O)c3ccccc3C2=O)cc1

Ki [13]: > 100 µM
Ki [14]: 3.1 µM
Kis [15]: 0.3 µM
SMILES: COc1ccc(/C=C2/SC(=O)N(CC(=O)O)C2=O)cc1

Ki [13]: > 100 µM
Ki [14]: > 100 µM
Kis [15]: 0.3 µM
SMILES: COc1cccc(/C=C2/SC(=O)N(CC(=O)O)C2=O)c1

Ki [16]: 8.5 µM
Ki [17]: 0.00048 µM
Ki [6]: 0.00021 µM
Ki [19]: 0.0065 µM
SMILES: NS(=O)(=O)c1ccc(N/C=C/C(=O)c2ccc(Br)cc2)cc1

Ki [4]: 0.0242 µM
Ki [5]: 0.0373 µM
SMILES: NS(=O)(=O)c1ccc(N2N=C(c3cccs3)CC2c2ccc(Cl)cc2)cc1 (configuration not stated)

Ki [13]: > 100 µM
Kis [15]: 0.3 µM
SMILES: O=C(O)CN1C(=O)S/C(=C/c2ccccc2)C1=O

Ki [13]: > 100 µM
Ki [14]: 3.1 µM
Kis [15]: 0.3 µM
SMILES: O=C(O)CN1C(=O)S/C(=C/c2ccc(Cl)cc2)C1=O

Ki [13]: > 100 µM
Ki [14]: > 100 µM
Kis [15]: 0.3 µM
SMILES: Cc1ccc(/C=C2/SC(=O)N(CC(=O)O)C2=O)cc1
